This test deals with Cryptococcus neoformans. As to the kind of experiment: MIC by broth microdilution (CLSI M27-A3). In kind it is cell-based. The note with it: Cryptococcus neoformans, Resistance FLU. (Broth dilution looks for growth in wells or tubes with falling amounts of substance.)

This passage reports MIC50 results from patent US20180185408A1, “ANTIFUNGAL NYLON-3 POLYMERS AND COMBINATION THERAPY USING THEM TO TREAT FUNGAL INFECTIONS” (priority 2016, published 2018).

SMILES strings stand for the structures.

The MIC50 is an inhibitory concentration at the 50% level, which refers to growth in some studies and to a panel of isolates in others. High values mean weaker potency, low ones greater potency. In the case of `OC(Cn1cncn1)(Cn1cncn1)c1ccc(F)cc1F` [FLC, fluconazole], the MIC50 is over 64 µg/mL (Cryptococcus neoformans CN2) and over 64 µg/mL (Cryptococcus neoformans CN3).
